Columns and labels:
[1] = test system: monocular form deprivation (MFD) Syrian hamster; assay: Refractive power in monocular form deprivation (MFD) hamster model, streak retinoscope; format: in vivo, golden Syrian hamsters; conditions: for Myopia in the non-MFD eye: LPS and PGN but not PBS treatment; for Refractive power, BL: left eye before MFD / Refractive power, BR: right eye before MFD: LPS or PGN group, baseline; for Refractive error FR-BR / Refractive error FL-BL: LPS or PGN; for Refractive error FR-BR: MFD right eye; for Refractive error FL-BL: non-MFD left eye
Method: In this study, a total of 160 golden Syrian hamsters aged 3 weeks, weighing 80 to 90 g, and 20 albino guinea pigs, aged 2 to 3 weeks, were used for experiments. All animals were kept in a 12-hour light/dark cycle. All procedures were approved by the Institutional Animal Care and Use Committee of China Medical University and were conducted in accordance with the guidelines of the Use of Animals in Ophthalmic and Vision Research. Hamsters were raised with a right eyelid fusion for 21 days. Myopia was induced in the guinea pigs by covering the right eye with a cloth attached to the skin at a distance of at least 1 cm from the eye. MFD was induced in the right eye (with the left eye serving as a control) of animals randomly assigned to treatment or control groups (n=10 animals each) receiving daily applications of drug or phosphate-buffered saline (PBS), respectively, to both eyes.
(§1) The RE (i.e., spherical-component RE, which is defined as the mean RE in horizontal and vertical meridians) was measured using a hand-held streak retinoscope. Animals were anesthetized with 10% ether in O2. Ocular refraction was evaluated at the start and end of the experiment. At the end of the study, animals were sacrificed through CO2 asphyxiation according to the guidelines of the Public Health Service, Office of Laboratory Animal Welfare, National Institutes of Health, and American Association of Veterinary Medicine. Eyes were enucleated using a razor blade on an ice plate under a surgical microscope (Topcon, Tokyo, Japan) by cutting perpendicularly to the anterior-posterior axis approximately 1 mm posterior to the ora serrata. The iris and ciliary body of the anterior segment of the eye were separated. Posterior sclera was excised using a 7-mm-diameter trephine. The axial lengths were determined through A-scan ultrasonography (PacScan 300 Plus, NY, USA). The average of 10 unique measurements was used.

Syrian hamster = assay: Refractive power of hamsters without MFD after LPS or PGN; format: in vivo; conditions: for Refractive power, BL: left eye before treatment / Refractive power, BR: right eye before treatment: LPS or PGN group, baseline; for Refractive power, FL: left eye after treatment / Refractive power, FR: right eye after treatment / Refractive error FL-BL / Refractive error FR-BR: LPS or PGN; for Refractive power, FL: left eye after treatment / Refractive power, FR: right eye after treatment: 21 days; for Refractive error FL-BL: left eye; for Refractive error FR-BR: right eye
Method: as §1
To further test this possibility, LPS and PGN were applied to the eyes of hamsters without MFD.

[2] = test system: sclera and retina of hamster eyes; assay: Immunohistochemistry of hamster eyes (sclera, retina); format: in vivo; conditions: for c-Fos and NF-κB expression / MMP2 and TGF-β expression / TGF-β and MMP2 expression: LPS or PGN; for IL-10 and TNF-α levels: LPS or PGN treatment; for MMP2 and TGF-β expression: MFD hamsters; for TGF-β and MMP2 expression: hamsters without MFD
Method: (§2) Antigen retrieval was performed by boiling the slides in citrate buffer (pH 6.0); the sections were then stained with antibodies against IL-6, TNF-α, TGF-β, MMP2, c-Fos, NF-κB, and CHRM1 and 3. The EnVision System peroxidase kit (DAKO, Carpentaria, Calif., USA) was used to visualize immunoreactivity.

[3] = test system: monocular form deprivation (MFD) Syrian hamster; assay: Refractive power in monocular form deprivation (MFD) hamster model, streak retinoscope; format: in vivo, golden Syrian hamsters; conditions: LPS or 500 ng/mL PGN every second day for 21 days
Retinal cell (R28) = assay: Gene expression by real-time PCR in LPS-treated R28 retinal cells; format: cell-based, rat; conditions: R28; 100 ng/ml LPS for 4 hours
Method: (§3) R28 rat retinal epithelial cells were provided by Gail Seigel at the Ross Eye Institute (SUNY, Buffalo, N.Y., USA). The cells were cultured in Dulbecco's modified Eagle's medium (DMEM) with 10% fetal bovine serum (FBS) at 37° C. and 5% CO2, with medium replacement every 3 days to 4 days. Sclera were placed in a 60-mm culture dish in DMEM supplemented with 10% FBS to isolate primary scleral fibroblasts; those from fewer than three passages were used in experiments. […] Cell lysates were collected for quantitative (q)PCR to determine gene expression levels.
(§4) Total RNA was extracted using the RNeasy MiniKit (Qiagen, Valencia, Calif., USA), and 5 μg of RNA was reverse-transcribed to cDNA by using the Superscript First Strand Synthesis system (Invitrogen, Carlsbad, Calif., USA). Primers and probes used for qPCR were selected from the Universal Probes Library (Roche, West Sussex, UK). Transcript levels were normalized to those of glyceraldehyde 3-phosphate dehydrogenase in each sample.

Sclera fibroblast = assay: Gene expression by real-time PCR in LPS-treated primary scleral fibroblasts; format: cell-based, hamster; conditions: sclera fibroblast; 100 ng/ml LPS for 4 hours
Method: as §3, §4

MMP2 = assay: Gelatin zymography of MMP2 activity in LPS-activated scleral fibroblasts and ARPE-19 cells; format: cell-based; conditions: LPS + 100 μM atropine or LPS + 50 μM diacerein; 48 hours
Method: To facilitate subsequent analysis, 1×10^6 cells were seeded in 24-well plates for at least 12 hours. […] To measure the MMP-2/MMP-9 activities, samples were separated using 8% SDS-PAGE containing 0.1% gelatin.

[4] = test system: LEWIS rats, right eye induced myopia by FDM; assay: Refractive error and axial length in FDM myopia LEWIS rats (diclofenac); format: in vivo
Method: Four weeks LEWIS rats were used in this example. […] The refractive error and axial length of right eye were measured by refractometer within three weeks and recorded in Table 14.

[5] = test system: MFD-induced myopia in hamster; assay: Effect of resveratrol on MFD-induced myopia in hamster (refractometer); format: in vivo; conditions: for Diopter, left eye (mean ± SD) / Diopter, right myopic eye (mean ± SD): 21 days
Method: 0.1141 g resveratrol (purchased from Sigma Aldrich Co.) powder was dissolved in 6 ml of ethanol to obtain resveratrol liquid. 1.46 g β-cyclodextrin (purchased from Sigma Aldrich Co.) was dissolved in 2 ml of sterile water to obtain a β-cyclodextrin solution (as a co-solvent); resveratrol liquid and β cyclodextrin were mixed in mole number of 1:2 by slowly adding dropwise β cyclodextrin solution into resveratrol liquid to form a mixture. The mixture was frozen drained, and then 5 ml artificial tears were added (purchased from Alcon company) to be re-dissolved to obtain 100 mM resveratrol solution. Resveratrol solution can be diluted by fetal bovine serum medium or artificial tears for various embodiments.
The refractive powers of hamsters were measured before experiment by refractometer (in China Medical University Hospital Department of Ophthalmology). The hamsters were administered artificial tears (referred to as control group) or various concentrations (3 mM, 30 mM, 100 mM) of resveratrol (experimental group) for five hamsters each group. The right eyes of the hamsters of each group were stitched; after 21 days, the stitches were all removed and then the refractive powers of each hamster were measured.

[6] = test system: sclera and retina of hamster eyes; assay: Immunohistochemical analysis of COL1, TGF-β, TNF-α in resveratrol-treated hamster eyes; format: in vivo; conditions: 100 mM resveratrol
Method: as §2, with “[…] Antigen” for “Antigen”

[7] = test system: monocyte chemoattractant protein-1 (MCP-1); assay: LPS-induced MCP-1 expression in human retinal pigment epithelial cells; format: cell-based; conditions: 50 μM resveratrol and 1 μg/ml LPS for 24 hours
Method: Human retinal pigment epithelial cells were as model cells under LPS stimulation for 24 hours to induce inflammation and monocyte chemoattractant protein-1 (MCP-1), and then resveratrol was administered to detect the effect of suppressing inflammatory response.

[8] = test system: Human retinal pigment epithelium; assay: Western blot of phosphorylated Akt and ERK after LPS in human retinal pigment epithelium; format: cell-based; conditions: 50 μM resveratrol pretreatment, then 500 ng/ml LPS
Method: Human retinal pigment epithelium was administrated 500 ng/ml LPS for 30 minutes to observe the expression of Akt and ERK.

[9] = 3 × diclofenac (3 mg/ml solution), right eye, three weeks, mean ± standard error

Compound: peptidoglycan [PGN]
- Myopia in the non-MFD eye [1]: induced
- Refractive power, BL: left eye before MFD [1]: 11.73 ± 0.25 D
- Refractive power, BR: right eye before MFD [1]: 11.48 ± 0.49 D
- Refractive error FR-BR [1]: −4.90 ± 0.83 D
- Refractive error FL-BL [1]: −5.03 ± 0.43 D
- Refractive power, BL: left eye before treatment (Syrian hamster): 12.22 ± 0.35 D
- Refractive power, BR: right eye before treatment (Syrian hamster): 12.17 ± 1.04 D
- Refractive power, FL: left eye after treatment (Syrian hamster): 8.67±0.63 D
- Refractive power, FR: right eye after treatment (Syrian hamster): 9.14±1.21 D
- Refractive error FL-BL (Syrian hamster): −3.55 ± 0.35 D
- Refractive error FR-BR (Syrian hamster): −3.03 ± 1.04 D
- c-Fos and NF-κB expression [2]: stimulated
- IL-10 and TNF-α levels [2]: increased
- MMP2 and TGF-β expression [2]: upregulation
- TGF-β and MMP2 expression [2]: upregulation
- Refractive power, FL: left eye after MFD [3]: 6.78±0.63 D
- Refractive power, FR: right eye after MFD (occluded eye) [3]: 6.47±0.39 D

Compound: lipopolysaccharide [LPS]
- Myopia in the non-MFD eye [1]: induced
- Refractive power, BL: left eye before MFD [1]: 11.92 ± 0.56 D
- Refractive power, BR: right eye before MFD [1]: 12.30 ± 0.48 D
- Refractive error FR-BR [1]: −5.9 ± 0.54 D
- Refractive error FL-BL [1]: −4.13 ± 0.9 D
- Refractive power, BL: left eye before treatment (Syrian hamster): 12.28 ± 0.97 D
- Refractive power, BR: right eye before treatment (Syrian hamster): 12.25 ± 0.57 D
- Refractive power, FL: left eye after treatment (Syrian hamster): 8.33±0.96 D
- Refractive power, FR: right eye after treatment (Syrian hamster): 8.56±0.42 D
- Refractive error FL-BL (Syrian hamster): −3.95 ± 0.97 D
- Refractive error FR-BR (Syrian hamster): −3.69 ± 0.57 D
- Chrm 1 gene expression level (Retinal cell (R28)): 1.39 ± 0.13
- Chrm 2 gene expression level (Retinal cell (R28)): 0.45 ± 0.23
- Chrm 3 gene expression level (Retinal cell (R28)): 1.27 ± 0.2
- Chrm 4 gene expression level (Retinal cell (R28)): 0.94 ± 0.15
- Chrm5 gene expression level (Retinal cell (R28)): 0.75 ± 0.21
- Fos gene expression level (Retinal cell (R28)): 1.39 ± 0.11
- IL1b gene expression level (Retinal cell (R28)): 4.3 ± 0.25
- IL10 gene expression level (Retinal cell (R28)): 0.56 ± 0.19
- IL-6 gene expression level (Retinal cell (R28)): 2.63 ± 0.15
- MMP2 gene expression level (Retinal cell (R28)): 1.32 ± 0.13
- NFkB gene expression level (Retinal cell (R28)): 1.13 ± 0.11
- Tgfb1 gene expression level (Retinal cell (R28)): 1.18 ± 0.12
- Tnfa gene expression level (Retinal cell (R28)): 1.56 ± 0.17
- Chrm 1 gene expression level (Sclera fibroblast): 1.49 ± 0.18
- Chrm 2 gene expression level (Sclera fibroblast): 1.48 ± 0.17
- Chrm 3 gene expression level (Sclera fibroblast): 1.58 ± 0.15
- Chrm 4 gene expression level (Sclera fibroblast): 1.07 ± 0.23
- Chrm5 gene expression level (Sclera fibroblast): 0.93 ± 0.15
- Fos gene expression level (Sclera fibroblast): 1.00 ± 0.11
- IL1b gene expression level (Sclera fibroblast): 2.84 ± 0.21
- IL10 gene expression level (Sclera fibroblast): 0.56 ± 0.19
- IL-6 gene expression level (Sclera fibroblast): 3.02 ± 0.16
- MMP2 gene expression level (Sclera fibroblast): 1.79 ± 0.17
- NFkB gene expression level (Sclera fibroblast): 4.50 ± 0.27
- Tgfb1 gene expression level (Sclera fibroblast): 2.15 ± 0.23
- Tnfa gene expression level (Sclera fibroblast): 1.49 ± 0.15
- c-Fos and NF-κB expression [2]: stimulated
- IL-10 and TNF-α levels [2]: increased
- MMP2 and TGF-β expression [2]: upregulation
- TGF-β and MMP2 expression [2]: upregulation
- Refractive power, FL: left eye after MFD [3]: 7.79±0.88 D
- Refractive power, FR: right eye after MFD (occluded eye) [3]: 6.44±0.18 D

Compound: CC(=O)Oc1cccc2c1C(=O)c1c(OC(C)=O)cc(C(=O)O)cc1C2=O [diacerein]
- MMP2 activities in cells activated by LPS (MMP2): decreased

Compound: O=C(O)Cc1ccccc1Nc1c(Cl)cccc1Cl [diclofenac]
- Inhibitory effect on myopia, comparison of concentrations ([4]; 3 mg/ml vs 6 mg/ml): better in the concentration of 3 mg/ml than in 6 mg/ml
- Δ Axial length [4, 9]: 1.04 ± 0.39 mm
- Δ Refractive error [4, 9]: 5.36 ± 4.05 D
- Δ Axial length ([4]; 6 × diclofenac (6 mg/ml solution), right eye, three weeks, mean ± standard error): 1.24 ± 0.55 mm
- Effect on myopia process ([4]; diclofenac solution 3 mg/ml and 6 mg/ml): significant inhibitory effect

Compound: Oc1ccc(C=Cc2cc(O)cc(O)c2)cc1 [resveratrol]
- Diopter, left eye (mean ± SD) ([5]; 3 mM resveratrol): −0.17 ± 0.24 Diopter
- Diopter, right myopic eye (mean ± SD) ([5]; 3 mM resveratrol): −2.42 ± 1.30 Diopter
- Diopter, left eye (mean ± SD) ([5]; 30 mM resveratrol): −0.63 ± 0.41 Diopter
- Diopter, right myopic eye (mean ± SD) ([5]; 30 mM resveratrol): −2.46 ± 0.65 Diopter
- Diopter, left eye (mean ± SD) ([5]; 100 mM resveratrol): −0.25 ± 1.53 Diopter
- Diopter, right myopic eye (mean ± SD) ([5]; 100 mM resveratrol): −1.13 ± 1.47 Diopter
- Inhibition of myopia, comparison of concentrations ([5]; 100 mM vs 3 mM and 30 mM): most effective
- TNF-α expression in the retina [6]: follows the same trend as TGF-β
- Collagen I protein expression in the sclera ([6]; stitched right eye): recovered
- TGF-β expression in the retina ([6]; stitched right eye): reduction effect
- Expression of MCP-1 [7]: decreasing
- Expression of phosphorylated Akt and ERK [8]: decrease

— patent publication US20210283087A1, “METHOD FOR TREATING AND RELIEVING MYOPIA” (China Medical University, priority 2014, published 2021)
